In paper PMC9250534, “Synthesis and direct assay of large macrocycle diversities by combinatorial late-stage modification at picomole scale” (Nature Communications, 2022):
Numbered stars: 1 amine (or outer) side, 2 acyl side, 3 side chain; on linkers, the order of the positions; unused ones are H or OH. Bridge positions count the residues as written; N and C are the ends. Square brackets hold non-standard residues; d marks the D form. Peptide text beside a SMILES is read from it. * marks the point of attachment. 2Thenoyl(5-Cl) = O=C(c1ccc(Cl)s1)*; Cysteamide = C(CS[*:3])N[*:1]; Orn = NCCC[CH](N)C(=O)O; Dap = NC[CH](N)C(=O)O; Mpa = O=C(O)CCS

Molecular target: T1, thrombin (Homo sapiens, UniProt P00734)
T1 construct: consists of two polypeptide chains of 36 (light chain) and 259 amino acid
Test: Thrombin inhibition screen of crude macrocycle reactions (residual thrombin activity, fluorogenic substrate Z-Gly-Gly-Arg-AMC)
Type: biochemical
Settings: 10 µM macrocycle concentration, macrocycles containing acid 14, crude reaction; for % thrombin activity, Repeat screen: replicate reaction and screen
Method in brief: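 Residual activity was measured as the AMC release rate after adding 50 μM Z-Gly-Gly-Arg-AMC. This followed a 10-min room-temperature preincubation of 2 nM thrombin with 10 μM single macrocycles in pH 7.4 Tris buffer (0.6% DMSO). Percent inhibition was taken against the mean slope of DMSO controls.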

Row | % thrombin activity, Original screen | % thrombin activity, Repeat screen | % thrombin activity, Original screen (listed as X D2 B5 y) | % thrombin activity, Repeat screen (listed as X D2 B5 y) | % thrombin activity, Original screen (listed as X D3 B1 V) | % thrombin activity, Repeat screen (listed as X D3 B1 V) | Structure (SMILES)
1 | 81.9% | 80.4% |  |  |  |  | O=C1CCSSCCNC(=O)[C@H](CCCNC(=O)c2ccc(Cl)s2)NC(=O)[C@H](Cc2ccccc2)NC(=O)c2cccc(c2)CN1 [X B5 F D2]
2 | 95.3% | 96.2% |  |  |  |  | NC(=O)CC[C@@H]1NC(=O)c2cccc(c2)CNC(=O)CCSSCCNC(=O)[C@H](CNC(=O)c2ccc(Cl)s2)NC1=O [X B5 Q D3]
3 | 96.4% | 100.5% |  |  |  |  | O=C1CCSSCCNC(=O)C(CCCCNC(=O)c2ccc(Cl)s2)NC(=O)C(CO)NC(=O)c2cccc(c2)CN1 (stereo not drawn) [X B5 S D1]
4 | 107.3% | 102.8% |  |  |  |  | CC(C)CC1NC(=O)C(CCCNC(=O)c2ccc(Cl)s2)NC(=O)C2(CC2)CNC(=O)CCSSCCNC1=O (stereo not drawn) [X B6 D2 L]
5 | 87.3% | 88.9% |  |  |  |  | O=C1CCSSCCNC(=O)[C@H](Cc2c[nH]c3ccccc23)NC(=O)[C@H](CCCNC(=O)c2ccc(Cl)s2)NC(=O)C2(CC2)CN1 [X B6 D2 W]
6 | 60.0% | 43.4% |  |  |  |  | CC(C)C[C@@H]1NC(=O)C2(CC2)CNC(=O)CCSSCCNC(=O)[C@H](CCCNC(=O)c2ccc(Cl)s2)NC1=O [X B6 L D2]
7 | 99.2% | 103.2% |  |  |  |  | O=C1CCSSCCNC(=O)C(CO)NC(=O)c2ccc(cc2)CNC(=O)C(CCCCNC(=O)c2ccc(Cl)s2)N1 (stereo not drawn) [X D1 B3 S]
8 | 99.6% | 102.4% |  |  |  |  | O=C1CCSSCCNC(=O)[C@H]2CCCN(C2)C(=O)[C@H](Cc2ccccc2)NC(=O)[C@H](CCCCNC(=O)c2ccc(Cl)s2)N1 [X D1 F B4]
9 | 105.8% | 107.1% |  |  |  |  | O=C1CCSSCCNC(=O)C2(CC2)CNC(=O)[C@H](Cc2c[nH]cn2)NC(=O)[C@H](CCCCNC(=O)c2ccc(Cl)s2)N1 [X D1 H B6]
10 | 97.6% | 98.2% |  |  |  |  | O=C1CCSSCCNC(=O)C2(CC2)CNC(=O)[C@H](CO)NC(=O)[C@H](CCCCNC(=O)c2ccc(Cl)s2)N1 [X D1 S B6]
11 | 93.0% | 94.7% |  |  |  |  | O=C1CCSSCCNC(=O)[C@H](Cc2cnc[nH]2)NC(=O)c2cccc(c2)CNC(=O)[C@H](CCCNC(=O)c2ccc(Cl)s2)N1 [X D2 B5 H]
12 | 78.2% | 66.2% | 82.3% | 75.1% |  |  | O=C1CCSSCCNC(=O)[C@H](Cc2ccc(O)cc2)NC(=O)c2cccc(c2)CNC(=O)[C@H](CCCNC(=O)c2ccc(Cl)s2)N1 [X D2 B5 Y]
13 | 95.3% | 93.4% |  |  |  |  | O=C1CCSSCCNC(=O)c2cccc(c2)CNC(=O)[C@H](Cc2ccccc2)NC(=O)[C@H](CCCNC(=O)c2ccc(Cl)s2)N1 [X D2 F B5]
14 | 105.4% | 107.4% |  |  |  |  | O=C1CCNC(=O)[C@H](CO)NC(=O)[C@H](CCCNC(=O)c2ccc(Cl)s2)NC(=O)CCSSCCN1 [X D2 S B2]
15 | 108.5% | 109.5% |  |  |  |  | C[C@H]1NC(=O)[C@H](CCCNC(=O)c2ccc(Cl)s2)NC(=O)CCSSCCNC(=O)CCNC1=O [X D2 a B2]

More lines, now with the values behind:

Row | Structure (SMILES) | % thrombin activity, Original screen | % thrombin activity, Repeat screen | % thrombin activity, Original screen (listed as X D2 B5 y) | % thrombin activity, Repeat screen (listed as X D2 B5 y) | % thrombin activity, Original screen (listed as X D3 B1 V) | % thrombin activity, Repeat screen (listed as X D3 B1 V)
16 | NC(=O)CC[C@@H]1NC(=O)C2(CCN(C(=O)c3ccc(Cl)s3)CC2)NC(=O)c2cccc(c2)CNC(=O)CCSSCCNC1=O [X B5 D6 Q] | 54.9% | 55.7% |  |  |  | 
17 | C[C@H]1NC(=O)C2(CCN(C(=O)c3ccc(Cl)s3)CC2)NC(=O)c2cccc(c2)CNC(=O)CCSSCCNC1=O [X B5 D6 a] | 86.2% | 89.2% |  |  |  | 
18 | O=C1CCSSCCNC(=O)[C@H](Cc2ccccc2)NC(=O)[C@H](CNC(=O)c2ccc(Cl)s2)NC(=O)C2(CC2)CN1 [X B6 D3 F] | 70.7% | 68.6% |  |  |  | 
19 | O=C1CCSSCCNC(=O)C(Cc2c[nH]c3ccccc23)NC(=O)C(CNC(=O)c2ccc(Cl)s2)NC(=O)C2(CC2)CN1 (stereo not drawn) [X B6 D3 w] | 92.5% | 95.8% |  |  |  | 
20 | NC(=O)CCC1NC(=O)C2CC(NC(=O)c3ccc(Cl)s3)CN2C(=O)C2(CC2)CNC(=O)CCSSCCNC1=O (stereo not drawn) [X B6 D5 Q] | 109.4% | 121.6% |  |  |  | 
21 | NC(=O)CC[C@@H]1NC(=O)C2(CC2)CNC(=O)CCSSCCNC(=O)[C@H](CCCNC(=O)c2ccc(Cl)s2)NC1=O [X B6 Q D2] | 99.3% | 95.8% |  |  |  | 
22 | O=C1CCSSCCNC(=O)[C@H](CNC(=O)c2ccc(Cl)s2)NC(=O)[C@H](Cc2ccc(O)cc2)NC(=O)C2(CC2)CN1 [X B6 Y D3] | 68.6% | 63.8% |  |  |  | 
23 | O=C1CCSSCCNC(=O)[C@H](CNC(=O)c2ccc(Cl)s2)NC(=O)[C@@H](Cc2ccccc2)NC(=O)C2(CC2)CN1 [X B6 f D3] | 49.0% | 42.0% |  |  |  | 
24 | O=C1CCSSCCNC(=O)[C@@H](CNC(=O)c2ccc(Cl)s2)NC(=O)[C@@H](Cc2c[nH]c3ccccc23)NC(=O)C2(CC2)CN1 [X B6 w D4] | 102.8% | 106.2% |  |  |  | 
25 | C[C@H]1NC(=O)[C@@H]2CCCN2C(=O)[C@H](CCCCNC(=O)c2ccc(Cl)s2)NC(=O)CCSSCCNC1=O [X D1 B1 a] ([Mpa]K(2Thenoyl(5-Cl))P[dA]-Cysteamide; disulfide 1-C) | 96.4% | 103.7% |  |  |  | 
26 | O=C1CCSSCCNC(=O)[C@@H](Cc2ccc(O)cc2)NC(=O)[C@H]2CCCN(C2)C(=O)[C@H](CCCCNC(=O)c2ccc(Cl)s2)N1 [X D1 B4 y] | 99.9% | 100.1% |  |  |  | 
27 | CCC(C)C1NC(=O)C(CCCCNC(=O)c2ccc(Cl)s2)NC(=O)CCSSCCNC(=O)C2(CC2)CNC1=O (stereo not drawn) [X D1 I B6] | 91.0% | 93.6% |  |  |  | 
28 | NC(=O)CCC1NC(=O)C(CCCCNC(=O)c2ccc(Cl)s2)NC(=O)CCSSCCNC(=O)C2CCCN2C1=O (stereo not drawn) [X D1 Q B1] ([Mpa]K(2Thenoyl(5-Cl))QP-Cysteamide; disulfide 1-C; configuration not given here) | 102.2% | 105.2% |  |  |  | 
29 | CC[C@H](C)[C@@H]1NC(=O)CCNC(=O)[C@H](CCCNC(=O)c2ccc(Cl)s2)NC(=O)CCSSCCNC1=O [X D2 B2 I] | 101.0% | 92.2% |  |  |  | 
30 | CCC(C)C1NC(=O)C(CCCNC(=O)c2ccc(Cl)s2)NC(=O)CCSSCCNC(=O)C2CCCN2C1=O (stereo not drawn) [X D2 I B1] ([Mpa][Orn](2Thenoyl(5-Cl))IP-Cysteamide; disulfide 1-C; configuration not given here) | 96.9% | 90.4% |  |  |  | 
31 | CC[C@H](C)[C@@H]1NC(=O)[C@H](CCCNC(=O)c2ccc(Cl)s2)NC(=O)CCSSCCNC(=O)CCNC1=O [X D2 I B2] | 94.1% | 96.8% |  |  |  | 
32 | CC(C)C[C@@H]1NC(=O)[C@H](CCCNC(=O)c2ccc(Cl)s2)NC(=O)CCSSCCNC(=O)[C@H]2CCCN(C2)C1=O [X D2 L B4] | 98.3% | 94.7% |  |  |  | 
33 | O=C1CCSSCCNC(=O)C2CCCN2C(=O)C(Cc2ccc(O)cc2)NC(=O)C(CCCNC(=O)c2ccc(Cl)s2)N1 (stereo not drawn) [X D2 Y B1] ([Mpa][Orn](2Thenoyl(5-Cl))YP-Cysteamide; disulfide 1-C; configuration not given here) | 96.4% | 96.3% |  |  |  | 
34 | CC(C)C1NC(=O)C2CCCN2C(=O)C(CNC(=O)c2ccc(Cl)s2)NC(=O)CCSSCCNC1=O (stereo not drawn) [X D3 B1 v] ([Mpa][Dap](2Thenoyl(5-Cl))PV-Cysteamide; disulfide 1-C; configuration not given here) | 92.1% | 95.4% |  |  | 98.0% | 99.7%
35 | O=C1CCSSCCNC(=O)[C@H](Cc2ccccc2)NC(=O)CCNC(=O)[C@H](CNC(=O)c2ccc(Cl)s2)N1 [X D3 B2 F] | 56.1% | 56.2% |  |  |  | 
36 | O=C1CCSSCCNC(=O)C(Cc2c[nH]cn2)NC(=O)CCNC(=O)C(CNC(=O)c2ccc(Cl)s2)N1 (stereo not drawn) [X D3 B2 H] | 78.9% | 71.1% |  |  |  | 
37 | NC(=O)CCC1NC(=O)CCNC(=O)C(CNC(=O)c2ccc(Cl)s2)NC(=O)CCSSCCNC1=O (stereo not drawn) [X D3 B2 Q] | 91.4% | 92.1% |  |  |  | 
38 | O=C1CCSSCCNC(=O)[C@H](Cc2c[nH]c3ccccc23)NC(=O)c2ccc(cc2)CNC(=O)[C@H](CNC(=O)c2ccc(Cl)s2)N1 [X D3 B3 W] | 68.7% | 73.3% |  |  |  | 
39 | O=C1CCSSCCNC(=O)[C@@H](Cc2ccccc2)NC(=O)c2ccc(cc2)CNC(=O)[C@H](CNC(=O)c2ccc(Cl)s2)N1 [X D3 B3 f] | 77.4% | 84.4% |  |  |  | 
40 | O=C1CCSSCCNC(=O)[C@H](Cc2ccccc2)NC(=O)[C@H]2CCCN(C2)C(=O)[C@H](CNC(=O)c2ccc(Cl)s2)N1 [X D3 B4 F] | 66.8% | 62.9% |  |  |  | 
